According to patent publication US20230165831A1, “METHOD AND COMPOSITION FOR RENDERING CANCER CELLS SUSCEPTIBLE TO TREATMENT BY TARGETED ONCOGENETIC DRIVERS” (IMPACT BIOLIFE SCIENCE, INC., priority 2021, published 2023):
Where two headings read alike, the source gives them in different places.

Experiments:
[1] = tested on: pancreatic cancer line Capan-1 cells; test: CTG (CellTiter-Glo) cell viability assay, 6×6 combo matrix, 72 h, Capan-1; format: cell-based; settings: Homo sapiens, CAPAN-1; read-out: Relatively Cell inhibition of vehicle control
Protocol: To measure the cell inhibition effect of compounds and synergy effect of test articles on ten (10) cell lines using standard CTG assay.
b. A549, T47D, SK-OV-3, MKN45, SK-Hep-1, HT-29, Capan-1, 786-O and LNCaP cell line, for compounds and vehicle groups, the seeding density of cell lines is 3000 cells/80 µL per well. For blank groups, add 100 µL medium. For PBS groups, add 100 µL PBS.
8) Incubate the U87MG, A549, T47D, SK-OV-3, MKN45, SK-Hep-1, HT-29, Capan-1, 786-O and LNCaP cells overnight at 37° C./5% CO2.
5) Incubate the plates at 37° C./5% CO2 for 72 hours.
6) Read plates in Envision.

[2] = tested on: Liver cancer line SK-HEP-1 cells;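 further: luminescent signal read after 72 h compound exposure at 37 °C under 5% CO2, with medium-only wells serving as blank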
[3] = tested on: prostate adenocarcinoma line LNCap cells;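 further: luminescence signal read after adding CellTiter-Glo reagent, with cells exposed to compounds for 72 h at 37 °C under 5% CO2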
[4] = tested on: breast cancer line T47D cells; test: CTG (CellTiter-Glo) cell viability assay, 6×6 combo matrix, 72 h, T47D; settings: Homo sapiens;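 further: luminescence read-out after 72 h at 37 °C under 5% CO2, with medium-only wells as blanks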
[5] = tested on: kidney cancer line 786-O cells;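 further: luminescence read-out after adding CellTiter-Glo reagent, with cells incubated at 37 °C under 5% CO2 during compound exposure, part of a ten cell line synergy study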
[6] = tested on: glioblastoma line U87MG cells; test: CTG (CellTiter-Glo) cell viability assay, 6×6 combo matrix, 72 h, U87MG; settings: Homo sapiens, U-87 MG;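 further: U87MG cells seeded at 2000 per well, exposed 72 h, viability read by CellTiter-Glo luminescence, inhibition expressed relative to vehicle-treated wells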
[7] = tested on: ovarian cancer line SK-OV3 cells;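 further: luminescent signal read after CellTiter-Glo addition, cells exposed to compounds for 72 h at 37 °C under 5% CO2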
[8] = tested on: colorectal cancer line HT29 cells; test: CTG (CellTiter-Glo) cell viability assay, 6×6 combo matrix, 72 h, HT29; settings: Homo sapiens, HT-29, read-out: Relatively Cell inhibition of vehicle control(%);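 further: cells exposed to compounds for 72 hours at 37 °C under 5% CO2, then viability read as luminescence after adding CellTiter-Glo Reagent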
Protocol: (§1) 7) Using complete cell medium, adjust the volume of the suspension to achieve a cell concentration.
(§2) Solid compound of cis-platinum was solubilized in PBS to a stock solution of 3.333 mM.
(§3) Final volume is 100 µL per well at this point.
(§4) 1) Incubate the plates at room temperature and away from light for 30 minutes.
(§5) 3) Add 100 µL /well of CellTiter-Glo® Reagent in each well. Avoid light.
(§6) 4) Mix contents for 2 minutes on an orbital shaker.
(§7) 5) Incubate plate at room temperature for 10 minutes to stabilize the luminescent signal.

[9] = tested on: lung adenocarcinoma line A549 cells; test: CTG (CellTiter-Glo) cell viability assay, 6×6 combo matrix, 72 h, A549; settings: Homo sapiens, A549, read-out: Relatively Cell inhibition of vehicle control(%);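 further: luminescent ATP readout with CellTiter-Glo after compound exposure, used to assess growth inhibition and combination synergy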
Protocol: as §1, §2, §3, §4, §5, §6, §7

[10] = tested on: Liver cancer line SK-HEP-1 cells; test: CTG (CellTiter-Glo) cell viability assay, 6×6 combo matrix, 72 h, SK-Hep-1; settings: Homo sapiens;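 further: luminescent signal read after 72 h compound exposure at 37 °C under 5% CO2, with medium-only wells serving as blank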
[11] = tested on: prostate adenocarcinoma line LNCap cells; test: CTG (CellTiter-Glo) cell viability assay, 6×6 combo matrix, 72 h, LNCaP; settings: Homo sapiens, LNCaP;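 further: luminescence signal read after adding CellTiter-Glo reagent, with cells exposed to compounds for 72 h at 37 °C under 5% CO2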
[12] = tested on: kidney cancer line 786-O cells; test: CTG (CellTiter-Glo) cell viability assay, 6×6 combo matrix, 72 h, 786-O; settings: Homo sapiens, 786-0, read-out: Relatively Cell inhibition of vehicle control;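 further: luminescence read-out after adding CellTiter-Glo reagent, with cells incubated at 37 °C under 5% CO2 during compound exposure, part of a ten cell line synergy study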

Work on `COc1cccc2c1C(=O)c1c(O)c3c(c(O)c1C2=O)C[C@@](O)(C(=O)CO)C[C@@H]3O[C@H]1C[C@H](N)[C@H](O)[C@H](C)O1` [doxorubicin] yielded an inhibition at 0.08 µM [1] of 44.8%, an inhibition at 0.4 µM [1] of 68% and an inhibition at 2 µM [1] of 86.9%. For the same compound, the inhibition at 10 µM [1] was 74.9%, the inhibition [2] was 4.48% and the inhibition [3] was 7.17%. The inhibition at […] ([4]; read-out: Relatively Cell inhibition of vehicle control(%), T47D, 16 nM doxorubicin only (myricetin 0)) was 6.02%, the inhibition at 0.08 µM ([4]; read-out: Relatively Cell inhibition of vehicle control(%), T47D, 80 nM doxorubicin only (LB-1 0)) was 19.3% and the inhibition at 0.08 µM ([4]; read-out: Relatively Cell inhibition of vehicle control(%), T47D, 80 nM doxorubicin only (myricetin 0)) was 23%. For the same compound, the inhibition at 0.4 µM ([4]; read-out: Relatively Cell inhibition of vehicle control(%), T47D, 400 nM doxorubicin only (LB-1 0)) was 50.2%, the inhibition at 0.4 µM ([4]; read-out: Relatively Cell inhibition of vehicle control(%), T47D, 400 nM doxorubicin only (myricetin 0)) was 53.7% and the inhibition at 2 µM ([4]; read-out: Relatively Cell inhibition of vehicle control(%), T47D, 2000 nM doxorubicin only (LB-1 0)) was 51.6%. The inhibition at 2 µM ([4]; read-out: Relatively Cell inhibition of vehicle control(%), T47D, 2000 nM doxorubicin only (myricetin 0)) was 59%, the inhibition at 10 µM ([4]; read-out: Relatively Cell inhibition of vehicle control(%), T47D, 10000 nM doxorubicin only (LB-1 0)) was 45.3% and the inhibition at 10 µM ([4]; read-out: Relatively Cell inhibition of vehicle control(%), T47D, 10000 nM doxorubicin only (myricetin 0)) was 48.1%. It also gave an inhibition [5] of 3.98%, an inhibition at 0.08 µM ([6]; 72 h, read-out: Relatively Cell inhibition of vehicle control(%), U87MG, 80 nM doxorubicin only (LB-1 0), 72 h) of 50% and an inhibition at 0.4 µM ([6]; 72 h, read-out: Relatively Cell inhibition of vehicle control(%), U87MG, 400 nM doxorubicin only (LB-1 0), 72 h) of 91.3%. It also gave an inhibition at 2 µM ([6]; 72 h, read-out: Relatively Cell inhibition of vehicle control(%), U87MG, 2000 nM doxorubicin only (LB-1 0), 72 h) of 72.4%, an inhibition at 10 µM ([6]; 72 h, read-out: Relatively Cell inhibition of vehicle control(%), U87MG, 10000 nM doxorubicin only (LB-1 0), 72 h) of 78.4% and an inhibition at […] ([6]; read-out: Relatively Cell inhibition of vehicle control(%), doxorubicin 16 nM only) of 27.4%. For the same compound, the inhibition at 0.08 µM ([6]; read-out: Relatively Cell inhibition of vehicle control(%), doxorubicin 80 nM only) was 52.5%, the inhibition at 0.4 µM ([6]; read-out: Relatively Cell inhibition of vehicle control(%), doxorubicin 400 nM only) was 93% and the inhibition at 2 µM ([6]; read-out: Relatively Cell inhibition of vehicle control(%), doxorubicin 2000 nM only) was 78.3%. It also gave an inhibition at 10 µM ([6]; read-out: Relatively Cell inhibition of vehicle control(%), doxorubicin 10000 nM only) of 80.8%, an inhibition [7] of 2.75% and an inhibition at 0.08 µM [8] of 25.6%. For the same compound, the inhibition at 0.4 µM [8] was 61.1%, the inhibition at 2 µM [8] was 92.3% and the inhibition at 10 µM [8] was 79.1%. The inhibition at 0.08 µM [9] was 42.2%, the inhibition at 0.4 µM [9] was 61.4% and the inhibition at 2 µM [9] was 95.8%. It also gave an inhibition at 10 µM [9] of 94.3%, an inhibition at […] ([10]; SK-HEP1, read-out: Relatively Cell inhibition of vehicle control, doxorubicin 16 nM only (myricetin table)) of 6.89% and an inhibition at 0.08 µM ([10]; SK-HEP1, read-out: Relatively Cell inhibition of vehicle control, doxorubicin 80 nM only (LB-1 table)) of 31.3%. It also gave an inhibition at 0.08 µM ([10]; SK-HEP1, read-out: Relatively Cell inhibition of vehicle control, doxorubicin 80 nM only (myricetin table)) of 25.5%, an inhibition at 0.4 µM ([10]; SK-HEP1, read-out: Relatively Cell inhibition of vehicle control, doxorubicin 400 nM only (LB-1 table)) of 66.2% and an inhibition at 0.4 µM ([10]; SK-HEP1, read-out: Relatively Cell inhibition of vehicle control, doxorubicin 400 nM only (myricetin table)) of 68.5%. The inhibition at 2 µM ([10]; SK-HEP1, read-out: Relatively Cell inhibition of vehicle control, doxorubicin 2000 nM only (LB-1 table)) was 98.6%, the inhibition at 2 µM ([10]; SK-HEP1, read-out: Relatively Cell inhibition of vehicle control, doxorubicin 2000 nM only (myricetin table)) was 98.5% and the inhibition at 10 µM ([10]; SK-HEP1, read-out: Relatively Cell inhibition of vehicle control, doxorubicin 10000 nM only (LB-1 table)) was 99.4%. For the same compound, the inhibition at 10 µM ([10]; SK-HEP1, read-out: Relatively Cell inhibition of vehicle control, doxorubicin 10000 nM only (myricetin table)) was 99.4%, the inhibition at […] ([11]; read-out: Relatively Cell inhibition of vehicle control(%), doxorubicin 16 nM only (myricetin plate)) was 2.69% and the inhibition at 0.08 µM ([11]; read-out: Relatively Cell inhibition of vehicle control(%), doxorubicin 80 nM only (LB-1 plate)) was 29.9%. The inhibition at 0.08 µM ([11]; read-out: Relatively Cell inhibition of vehicle control(%), doxorubicin 80 nM only (myricetin plate)) was 31.7%, the inhibition at 0.4 µM ([11]; read-out: Relatively Cell inhibition of vehicle control(%), doxorubicin 400 nM only (LB-1 plate)) was 65.2% and the inhibition at 0.4 µM ([11]; read-out: Relatively Cell inhibition of vehicle control(%), doxorubicin 400 nM only (myricetin plate)) was 67.3%. It also gave an inhibition at 2 µM ([11]; read-out: Relatively Cell inhibition of vehicle control(%), doxorubicin 2000 nM only (LB-1 plate)) of 97.2%, an inhibition at 2 µM ([11]; read-out: Relatively Cell inhibition of vehicle control(%), doxorubicin 2000 nM only (myricetin plate)) of 97% and an inhibition at 10 µM ([11]; read-out: Relatively Cell inhibition of vehicle control(%), doxorubicin 10000 nM only (LB-1 plate)) of 87.8%. It also gave an inhibition at 10 µM ([11]; read-out: Relatively Cell inhibition of vehicle control(%), doxorubicin 10000 nM only (myricetin plate)) of 88.9%, an inhibition at 0.08 µM [12] of 24% and an inhibition at 0.4 µM [12] of 64.9%. For the same compound, the inhibition at 2 µM [12] was 76.2% and the inhibition at 10 µM [12] was 83.8%.
